Results from ChEMBL document CHEMBL1201862, “PubChem BioAssay data set” (2004).
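Dose response: 5 concentrations. Exposure: 48 h. Format: 96-well plates. Endpoint: linear interpolation; highest concentration if not reached. GI50 = concentration required for 50% inhibition of growth.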 Activity calls are given as the source filed them. Rule as the data show it: active = GI50 up to about 1.1 µM and inactive = higher.

Columns and labels:
Assay in all cases: DTP human tumour cell line panel, 48 h
SNB-19 = system: SNB-19
NCI/ADR-RES = system: NCI/ADR-RES
NCI-H460 = system: NCI-H460
A549 = system: A549
KM12 = system: KM12
SW-620 = system: SW-620
SF-539 = system: SF-539
ACHN = system: ACHN
COLO 205 = system: COLO 205
K562 = system: K562
IGROV-1 = system: IGROV-1
LOX IMVI = system: LOX IMVI
HCT-116 = system: HCT-116
NCI-H226 = system: NCI-H226
EKVX = system: EKVX
UACC-62 = system: UACC-62
SR = system: SR
SK-MEL-5 = system: SK-MEL-5
MOLT-4 = system: MOLT-4
HT-29 = system: HT-29

Compound	GI50 (SNB-19)	GI50 (NCI/ADR-RES)	GI50 (NCI-H460)	GI50 (A549)	GI50 (KM12)	GI50 (SW-620)	GI50 (SF-539)	GI50 (ACHN)	GI50 (COLO 205)	GI50 (K562)	GI50 (IGROV-1)	GI50 (LOX IMVI)	GI50 (HCT-116)	GI50 (NCI-H226)	GI50 (EKVX)	GI50 (UACC-62)	GI50 (SR)	GI50 (SK-MEL-5)	GI50 (MOLT-4)	GI50 (HT-29)
Cc1noc(NC(=O)Nc2ccccc2F)c1C#N	> 35 µM (inactive)	> 100 µM (inactive)	6.55 µM (inactive)	26.1 µM (inactive)	> 100 µM (inactive)	> 100 µM (inactive)	> 100 µM (inactive)	22.2 µM (inactive)	> 100 µM (inactive)	> 45.8 µM (inactive)	> 91.6 µM (inactive)	58.5 µM (inactive)	14.4 µM (inactive)	> 100 µM (inactive)	11.6 µM (inactive)	> 27.4 µM (inactive)	21.4 µM (inactive)	45.7 µM (inactive)	48.9 µM (inactive)	–
C1=Cc2ccccc2C1.C=C(C)c1ccccc1.[N-]=[N+]=Nc1ccccc1	> 100 µM (inactive)	> 100 µM (inactive)	90.4 µM (inactive)	> 100 µM (inactive)	50.5 µM (inactive)	67.3 µM (inactive)	> 100 µM (inactive)	> 100 µM (inactive)	> 100 µM (inactive)	46.9 µM (inactive)	> 100 µM (inactive)	> 100 µM (inactive)	48.3 µM (inactive)	52.1 µM (inactive)	38.5 µM (inactive)	45.8 µM (inactive)	> 100 µM (inactive)	> 100 µM (inactive)	96.2 µM (inactive)	42.7 µM (inactive)
c1ccc(NN(Cc2cnccn2)c2ccccc2)cc1	> 100 µM (inactive)	40.5 µM (inactive)	91.8 µM (inactive)	42.2 µM (inactive)	> 100 µM (inactive)	> 100 µM (inactive)	> 100 µM (inactive)	> 100 µM (inactive)	84.3 µM (inactive)	47.5 µM (inactive)	83.2 µM (inactive)	77.6 µM (inactive)	60.5 µM (inactive)	80.2 µM (inactive)	75.5 µM (inactive)	81.8 µM (inactive)	61.9 µM (inactive)	40.2 µM (inactive)	42.3 µM (inactive)	97.3 µM (inactive)
COC1CC(C)(NC(C)=O)C2OC(c3ccccc3)OCC2O1 (stereo unspecified)	> 100 µM (inactive)	> 100 µM (inactive)	> 100 µM (inactive)	> 100 µM (inactive)	> 100 µM (inactive)	> 100 µM (inactive)	> 100 µM (inactive)	> 100 µM (inactive)	> 100 µM (inactive)	> 100 µM (inactive)	> 100 µM (inactive)	> 100 µM (inactive)	> 100 µM (inactive)	> 100 µM (inactive)	> 100 µM (inactive)	> 100 µM (inactive)	> 100 µM (inactive)	> 100 µM (inactive)	> 100 µM (inactive)	> 100 µM (inactive)
Cc1ccc2c(=O)cc(-c3ccc(-c4ccccc4)s3)[nH]c2n1	70.1 µM (inactive)	> 57.1 µM (inactive)	> 59.7 µM (inactive)	58.6 µM (inactive)	> 24.5 µM (inactive)	> 31.5 µM (inactive)	13 µM (inactive)	> 100 µM (inactive)	> 100 µM (inactive)	11.9 µM (inactive)	34.9 µM (inactive)	> 48.3 µM (inactive)	25.6 µM (inactive)	29.1 µM (inactive)	27.2 µM (inactive)	17 µM (inactive)	2.43 µM (inactive)	2.87 µM (inactive)	4.18 µM (inactive)	> 100 µM (inactive)
Cc1cc(-c2nc3ccc(F)cc3s2)ccc1NC(=O)C(N)CCCCN (stereo unspecified)	10.2 µM (inactive)	15.1 µM (inactive)	1.82 µM (inactive)	2.64 µM (inactive)	2.02 µM (inactive)	2.9 µM (inactive)	3.27 µM (inactive)	12.7 µM (inactive)	4.51 µM (inactive)	3.45 µM (inactive)	0.617 µM (active)	2.3 µM (inactive)	3.71 µM (inactive)	2.44 µM (inactive)	12.6 µM (inactive)	10.8 µM (inactive)	1.96 µM (inactive)	9.68 µM (inactive)	2.34 µM (inactive)	3.54 µM (inactive)
CC(C)Oc1cccc(N2C(NCCc3c[nH]c4ccccc34)=Nc3ccncc3S2(=O)=O)c1	> 100 µM (inactive)	29.9 µM (inactive)	6.53 µM (inactive)	40.9 µM (inactive)	30.5 µM (inactive)	8.36 µM (inactive)	33.7 µM (inactive)	35.5 µM (inactive)	1.79 µM (inactive)	3.82 µM (inactive)	41.7 µM (inactive)	52.1 µM (inactive)	6.71 µM (inactive)	> 100 µM (inactive)	72.8 µM (inactive)	31 µM (inactive)	3.26 µM (inactive)	9.59 µM (inactive)	3.94 µM (inactive)	5.01 µM (inactive)
Cc1n[nH]c(=O)n1N1C(=O)c2ccccc2C1=O	> 100 µM (inactive)	> 100 µM (inactive)	> 100 µM (inactive)	> 100 µM (inactive)	> 100 µM (inactive)	> 100 µM (inactive)	> 100 µM (inactive)	> 100 µM (inactive)	> 100 µM (inactive)	> 100 µM (inactive)	> 100 µM (inactive)	> 100 µM (inactive)	> 100 µM (inactive)	> 100 µM (inactive)	> 100 µM (inactive)	> 100 µM (inactive)	> 100 µM (inactive)	> 100 µM (inactive)	> 100 µM (inactive)	> 100 µM (inactive)
CSc1c(C#N)c(=O)n(N)c2c1c(C)nn2-c1ccccc1	28.4 µM (inactive)	24.3 µM (inactive)	> 100 µM (inactive)	21.9 µM (inactive)	34.2 µM (inactive)	35.9 µM (inactive)	19 µM (inactive)	–	17.3 µM (inactive)	31 µM (inactive)	–	20.6 µM (inactive)	23.7 µM (inactive)	24.8 µM (inactive)	26.7 µM (inactive)	22 µM (inactive)	23.6 µM (inactive)	15.3 µM (inactive)	27.5 µM (inactive)	24.7 µM (inactive)
CCCCCCCCCCCCCCCCC(=O)NCC(=O)NCC(=O)NC(Cc1ccccc1)C(=O)Oc1ccc([N+](=O)[O-])cc1 (stereo unspecified)	> 10 µM (inactive)	20.6 µM (inactive)	18.3 µM (inactive)	> 10 µM (inactive)	22.7 µM (inactive)	19.4 µM (inactive)	27.6 µM (inactive)	> 100 µM (inactive)	20.2 µM (inactive)	23.3 µM (inactive)	> 100 µM (inactive)	20.4 µM (inactive)	18.6 µM (inactive)	35 µM (inactive)	37.8 µM (inactive)	20.7 µM (inactive)	25 µM (inactive)	21.6 µM (inactive)	16.4 µM (inactive)	29.3 µM (inactive)
COC(=O)c1cc2c(cc1CC1Cc3cc4c(cc3C1=O)CCC4)CCC2 (stereo unspecified)	> 100 µM (inactive)	38.1 µM (inactive)	40 µM (inactive)	40.3 µM (inactive)	32.4 µM (inactive)	29.4 µM (inactive)	58.9 µM (inactive)	> 100 µM (inactive)	33.3 µM (inactive)	20.2 µM (inactive)	97.5 µM (inactive)	41.4 µM (inactive)	33.4 µM (inactive)	56.6 µM (inactive)	67.5 µM (inactive)	47.2 µM (inactive)	45.4 µM (inactive)	17.6 µM (inactive)	13.5 µM (inactive)	31.7 µM (inactive)
CCOC(=O)c1c(NC(=O)OC)c(C#N)c2n1CCCCC2	> 100 µM (inactive)	> 100 µM (inactive)	> 100 µM (inactive)	–	> 100 µM (inactive)	> 100 µM (inactive)	> 100 µM (inactive)	> 100 µM (inactive)	> 100 µM (inactive)	> 100 µM (inactive)	> 100 µM (inactive)	> 100 µM (inactive)	> 100 µM (inactive)	> 100 µM (inactive)	> 100 µM (inactive)	> 100 µM (inactive)	> 100 µM (inactive)	> 100 µM (inactive)	45.1 µM (inactive)	> 100 µM (inactive)
CN(N=O)C(=O)Nc1ccc(C(=O)O)cc1	> 100 µM (inactive)	> 100 µM (inactive)	> 100 µM (inactive)	> 100 µM (inactive)	> 100 µM (inactive)	> 100 µM (inactive)	> 100 µM (inactive)	> 100 µM (inactive)	> 100 µM (inactive)	> 100 µM (inactive)	> 100 µM (inactive)	> 100 µM (inactive)	> 100 µM (inactive)	> 100 µM (inactive)	> 100 µM (inactive)	> 100 µM (inactive)	> 100 µM (inactive)	> 100 µM (inactive)	> 100 µM (inactive)	> 100 µM (inactive)
CN(C)CCN1Nc2c3ccccc3nc3c(C(=O)NCCCN(C)CCCNC(=O)c4ccc5c6c(c7ccccc7nc46)NN5CCN(C)C)ccc1c23	< 0.01 µM (active)	1.36 µM (inactive)	< 0.01 µM (active)	< 0.01 µM (active)	< 0.01 µM (active)	< 0.01 µM (active)	0.257 µM (active)	< 0.01 µM (active)	0.0143 µM (active)	< 0.01 µM (active)	< 0.01 µM (active)	< 0.01 µM (active)	< 0.01 µM (active)	0.0187 µM (active)	0.0504 µM (active)	0.0173 µM (active)	< 0.01 µM (active)	0.0147 µM (active)	< 0.01 µM (active)	< 0.01 µM (active)
